Laboratory results published in ChEMBL document CHEMBL1150765, “Clavatadine A, a natural product with selective recognition and irreversible inhibition of factor XIa” (J Med Chem, 2008).

Legend:
[1] = biological target: Coagulation factor IX (Homo sapiens) (UniProt P00740); experiment: Inhibition of factor 9a at 222 uM
Coagulation factor XI = Coagulation factor XI (Homo sapiens, UniProt P03951); experiment: Inhibition of factor 11a
Coagulation factor XI, sequence (P03951 19-387 limits assumed): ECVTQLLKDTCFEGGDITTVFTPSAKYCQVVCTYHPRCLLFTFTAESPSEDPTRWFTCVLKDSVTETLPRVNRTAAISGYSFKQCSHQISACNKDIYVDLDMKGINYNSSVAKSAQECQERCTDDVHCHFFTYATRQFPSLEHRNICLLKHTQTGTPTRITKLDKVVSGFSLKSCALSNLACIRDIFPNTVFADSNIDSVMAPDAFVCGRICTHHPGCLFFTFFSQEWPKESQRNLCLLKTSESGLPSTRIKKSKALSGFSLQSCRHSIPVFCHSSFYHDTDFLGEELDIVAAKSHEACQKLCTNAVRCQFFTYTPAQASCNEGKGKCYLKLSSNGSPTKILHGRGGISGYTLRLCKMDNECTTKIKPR
Coagulation factor XI, sequence (P03951 388-625 limits assumed): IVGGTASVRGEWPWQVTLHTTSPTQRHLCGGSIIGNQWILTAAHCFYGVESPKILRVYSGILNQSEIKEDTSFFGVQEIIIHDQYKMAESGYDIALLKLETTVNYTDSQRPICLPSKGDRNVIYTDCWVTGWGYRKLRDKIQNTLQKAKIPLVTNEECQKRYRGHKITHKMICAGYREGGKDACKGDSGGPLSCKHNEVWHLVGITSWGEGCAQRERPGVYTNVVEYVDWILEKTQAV

Coagulation factor IX (Homo sapiens), sequence (P00740 47-191 limits assumed): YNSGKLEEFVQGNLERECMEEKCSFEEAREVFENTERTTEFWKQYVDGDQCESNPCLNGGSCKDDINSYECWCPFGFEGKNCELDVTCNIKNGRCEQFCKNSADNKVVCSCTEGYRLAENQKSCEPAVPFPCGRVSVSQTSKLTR
Coagulation factor IX (Homo sapiens), sequence (P00740 227-461 limits assumed): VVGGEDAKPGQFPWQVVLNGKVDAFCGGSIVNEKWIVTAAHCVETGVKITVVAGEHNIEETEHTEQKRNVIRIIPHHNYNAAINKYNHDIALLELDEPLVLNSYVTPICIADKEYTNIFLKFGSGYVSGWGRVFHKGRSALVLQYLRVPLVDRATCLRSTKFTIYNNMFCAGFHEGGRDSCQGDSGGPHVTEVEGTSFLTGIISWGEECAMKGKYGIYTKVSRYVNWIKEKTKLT

Compound | inhibition [1] [%] | IC50 (Coagulation factor XI) [µM]
N=C(N)NCCCCNC(=O)Oc1c(Br)cc(O)c(CC(=O)O)c1Br [CLAVATADINE A] | < 5 | 1.3
N=C(N)NCCCCNC(=O)Oc1cc(Br)c(O)c(Br)c1CC(N)=O [CLAVATADINE B] | < 5 | 27
